The subject of one data set is P. rettgeri CAP. Put plainly: Broth microdilution MIC, reference strains. It is filed as cell-based. Conditions: Providencia rettgeri, read-out: MIC (growth inhibition, microdilution method). The text has this: (§1) All clinical isolates tested were from The North American Urinary Tract Infection Collaborative Alliance (NAUTICA) which is a UTI surveillance study involving 40 medical centres (30 from the US and 10 from Canada). Each centre submitted up to 50 consecutive outpatient midstream urine isolates. All isolates were deemed significant urinary tract pathogens by individual laboratory criteria and identified to the species level by each laboratory's existing protocol. Isolates were transported to the coordinating laboratory (Health Sciences Centre, Winnipeg, Canada) on charcoal swabs. Only one isolate per patient was accepted. Upon receipt, isolates were cultured by the coordinating laboratory, stocked in skim milk, and stored at −80° C. awaiting reference antibiotic susceptibility testing. Elementary demographic information was also compiled for each isolate. Isolates were selected randomly from the above pool to represent 18 different species of Enterobacteriaceae and non-Enterobacteriaceae. An average of 5 strains of each species were tested for a total of 93 organisms. In addition, 23 reference (ATCC) [both gram negative and gram positive] strains were tested.
(§2) Susceptibilities to the compounds were determined using the National Committee for Clinical Laboratory Standards (NCCLS) M7-A6 broth microdilution method. […] DMSO controls were incorporated into the panel to mimic the quantity of DMSO used in dissolving some of the compounds at the higher concentrations. Each final panel well volume was 100 μl with a bacterial inoculum of 5×10^5 colony forming units (CFU)/ml. Panels were read following 16 to 20 hours of incubation at 35° C. in ambient air. The minimum inhibitory concentration (MIC) was defined as the lowest concentration of antimicrobial inhibiting visible growth. Quality control (QC) was performed using four ATCC QC organisms that were run with every batch set up to insure reproducibility.
Background: In broth dilution the organism is exposed to a series of concentrations in liquid medium.

In data set [1] the test system is B. cepacia clinical isolates. Put plainly: Broth microdilution MIC, clinical isolate strains (NAUTICA). Format: cell-based. Conditions: unit assumed.
Source text: as §1, §2

The test system of data set [2] is C. amalonaticus clinical isolates. The description is as above. Conditions: unit assumed. Format: cell-based.
Source text: as §1, §2

Data set [3] relates to C. freundii clinical isolates. The data set is described as above. Format: cell-based. Conditions: in µg/mL (unit assumed).
Source text: as §1, §2

Data set [4] relates to C. koseril clinical isolates. Described as above. Format: cell-based. Conditions: unit assumed.
Source text: as §1, §2

Data set [5] deals with E. aerogenes clinical isolates. The description is as above. Format: cell-based. Conditions: unit assumed.
Source text: as §1, §2

Data set [6] has as its system E. cloacae clinical isolates. The data set is described as above. It is filed as cell-based. Conditions: unit assumed.
Source text: as §1, §2

The test system of data set [7] is E. coli clinical isolates. Described as above. It is filed as cell-based. Conditions: unit assumed.
Source text: as §1, §2

The test system of data set [8] is K. oxytoca clinical isolates. Described as above. It is filed as cell-based. Conditions: unit assumed.
Source text: as §1, §2

The test system of data set [9] is K. pneumoniae clinical isolates. Described as above. It is filed as cell-based. Conditions: unit assumed.
Source text: as §1, §2

For data set [10], the system named is M. morganii clinical isolates. The description is as above. It is filed as cell-based. Conditions: unit assumed.
Source text: as §1, §2

Data set [11] has as its system P. mirabilis clinical isolates. The description is as above. Conditions: unit assumed. Format: cell-based.
Source text: as §1, §2

In data set [12] the test system is P. retgerri clinical isolates. The data set is described as above. Format: cell-based. Conditions: unit assumed.
Source text: as §1, §2

Data set [13] deals with P. vulgaris clinical isolates. Described as above. It is filed as cell-based. Conditions: unit assumed.
Source text: as §1, §2

The test system of data set [14] is S. liquifaciens clinical isolates. Described as above. It is filed as cell-based. Conditions: unit assumed.
Source text: as §1, §2

In data set [15] the test system is S. marcescens clinical isolates. The data set is described as above. Format: cell-based. Conditions: unit assumed.
Source text: as §1, §2

Data set [16] relates to A. baumanii clinical isolates. Put plainly: Broth microdilution MIC, clinical isolate strains (NAUTICA). Format: cell-based. Conditions: Table 4B; each table row is one clinical isolate; unit assumed.
Source text: as §1, §2

Data set [17] has as its system P. stuartii clinical isolates. The description is as above. Format: cell-based. Conditions: Table 4B; each table row is one clinical isolate; unit assumed.
Source text: as §1, §2

The test system of data set [18] is Ps. aeruginosa clinical isolates. Described as above. It is filed as cell-based. Conditions: Table 4B; each table row is one clinical isolate; unit assumed.
Source text: as §1, §2

The test system of data set [19] is S. maltophilia clinical isolates. The description is as above. It is filed as cell-based. Conditions: Table 4B; each table row is one clinical isolate; unit assumed.
Source text: as §1, §2

Where [20] appears, read: clinical isolates, one table line per isolate.
Setting [21] is: Table 4B, each table row is one clinical isolate.

Molecules are shown by their SMILES. Values after ≈ are worked out from the molar mass of the structure shown. Like-named read-outs stand apart in the source and are kept apart here.

Usually MIC stands for the lowest concentration that inhibits growth of the organism. Usually melting point stands for the temperature, or range, at which the solid turns liquid. The compound `COC(=O)c1cc(-c2nnn(C)n2)c(C(=O)OC)s1` [DNM-114, 3-(2-methyl-2H-tetrazol-5-yl)-thiophene-2,5-dicarboxylic acid dimethyl ester] returned a melting point of 121 to 122 °C. Moreover, in the data set on P. rettgeri CAP, the MIC came to 128 µg/mL (≈ 453 µM). The MIC, B. CEPACIA in data set [1] (setting [20]) was 64 µg/mL (≈ 227 µM). The compound further yielded an MIC, C. AMALONATICUS in data set [2] (setting [20]) of 128 µg/mL (≈ 453 µM). Moreover, the “MIC, C. FREUNDII” value in data set [3] (setting [20]) was determined as 128. The compound further showed an MIC, C. KOSERI in [4] (setting [20]) of 128 µg/mL (≈ 453 µM). The same compound came in with an MIC, E. AEROGENES in data set [5] (setting [20]) of 128 µg/mL (≈ 453 µM). Also, in data set [6] (setting [20]), the MIC, E. CLOACAE stood at 128 µg/mL (≈ 453 µM). Also, the MIC, E. COLI in [7] (setting [20]) amounted to 128 µg/mL (≈ 453 µM). For the same compound, the MIC, K. OXYTOCA in data set [8] (setting [20]) was 128 µg/mL (≈ 453 µM). The compound also registered an MIC, K. PNEUMONIAE in data set [9] (setting [20]) of 128 µg/mL (≈ 453 µM). For the same compound, in data set [10] (setting [20]), the MIC, M. MORGANII worked out at 128 µg/mL (≈ 453 µM). Besides, the MIC, P. MIRABILIS in data set [11] (setting [20]) is 128 µg/mL (≈ 453 µM). The MIC, P. RETTGERI in [12] (setting [20]) was 128 µg/mL (≈ 453 µM). The compound also returned an MIC, P. VULGARIS in [13] (setting [20]) of 128 µg/mL (≈ 453 µM). Also, the MIC, S. LIQUEFACIENS in data set [14] (setting [20]) turned out to be 128 µg/mL (≈ 453 µM). Also, the MIC, S. MARCESCENS in data set [15] (setting [20]) is 128 µg/mL (≈ 453 µM).
With `COC(=O)c1sc(-c2ccc(F)cc2)cc1-c1nnn(C)n1` [DNM-144, 5-(4-fluoro-phenyl)-3-(2-methyl-2H-tetrazol-5-yl)-thiophene-2-carboxylic acid methyl ester], the melting point lay in the range of 131.5 to 132.5 °C. In addition, the MIC with P. rettgeri CAP (P. rettgeri (CAP in Table 1)) is more than 8 µg/mL. The compound further yielded an MIC, A. BAUMANII in [16] of more than 8 µg/mL. The compound also returned an MIC, B. CEPACIA in [1] (setting [21]) of more than 8 µg/mL. This compound also yielded an MIC, C. AMALONATICUS in [2] (setting [21]) of more than 8 µg/mL. Moreover, in data set [3] (setting [21]), the “MIC, C. FREUNDII” value is listed as more than 8. For the same compound, the MIC, C. KOSERI in [4] (setting [21]) is more than 8 µg/mL. The same compound had an MIC, E. AEROGENES in data set [5] (setting [21]) of more than 8 µg/mL. This compound also came in with an MIC, E. CLOACAE in data set [6] (setting [21]) of more than 8 µg/mL. This compound displayed an MIC, E. COLI in [7] (setting [21]) of more than 8 µg/mL. In addition, in [8] (setting [21]), the MIC, K. OXYTOCA was more than 8 µg/mL. In addition, the MIC, K. PNEUMONIAE in data set [9] (setting [21]) is more than 8 µg/mL. For the same compound, the MIC, M. MORGANII in data set [10] (setting [21]) was more than 8 µg/mL. For the same compound, in [11] (setting [21]), the MIC, P. MIRABILIS was more than 8 µg/mL. This compound yielded an MIC, P. RETTGERI in [12] (setting [21]) of more than 8 µg/mL. In addition, the MIC, P. STUARTII in data set [17] was more than 8 µg/mL. This compound showed an MIC, P. VULGARIS in data set [13] (setting [21]) of more than 8 µg/mL. The same compound registered an MIC, PS. AER in data set [18] of more than 8 µg/mL. The compound also returned an MIC, S. LIQUEFACIENS in data set [14] (setting [21]) of more than 8 µg/mL. The compound also came in with an MIC, S. MALTOPHILIA in [19] of more than 8 µg/mL. Also, the MIC, S. MARCESCENS in [15] (setting [21]) is more than 8 µg/mL.
Take `COC(=O)c1sc(-c2ccc(F)cc2)cc1-c1nnnn1C` [DNM-145, 5-(4-Fluoro-phenyl)-3-(1-methyl-1H-tetrazol-5-yl)-thiophene-2-carboxylic acid methyl ester]: the MIC in the data set on P. rettgeri CAP (P. rettgeri (CAP in Table 1)) was more than 4 µg/mL. In addition, the MIC, A. BAUMANII in data set [16] was more than 4 µg/mL. The compound further displayed an MIC, B. CEPACIA in [1] (setting [21]) of more than 4 µg/mL. Besides, the MIC, C. AMALONATICUS in [2] (setting [21]) was more than 4 µg/mL. For the same compound, in [3] (setting [21]), the “MIC, C. FREUNDII” value was more than 4. Moreover, the MIC, C. KOSERI in data set [4] (setting [21]) was more than 4 µg/mL. Besides, in [5] (setting [21]), the MIC, E. AEROGENES is more than 4 µg/mL. In addition, the MIC, E. CLOACAE in [6] (setting [21]) is more than 4 µg/mL. The MIC, E. COLI in data set [7] (setting [21]) is more than 4 µg/mL. This compound came in with an MIC, K. OXYTOCA in data set [8] (setting [21]) of more than 4 µg/mL. Also, in data set [9] (setting [21]), the MIC, K. PNEUMONIAE is more than 4 µg/mL. In data set [10] (setting [21]), the MIC, M. MORGANII is more than 4 µg/mL. In data set [11] (setting [21]), the MIC, P. MIRABILIS was more than 4 µg/mL. The MIC, P. RETTGERI in data set [12] (setting [21]) was more than 4 µg/mL. This compound yielded an MIC, P. STUARTII in [17] of more than 4 µg/mL. In data set [13] (setting [21]), this compound gave an MIC, P. VULGARIS of more than 4 µg/mL. In data set [18], this compound showed an MIC, PS. AER of more than 4 µg/mL. Also, in data set [14] (setting [21]), the MIC, S. LIQUEFACIENS was more than 4 µg/mL. In [19], the MIC, S. MALTOPHILIA was more than 4 µg/mL. The MIC, S. MARCESCENS in data set [15] (setting [21]) is more than 4 µg/mL.
